Test results from the NIST ThermoML archive (doi:10.1021/je060271a).
Several values for one entry are separate records, joined by “and”; a condition that tells them apart may be missing. Equal entries are not always repeated.

Conditions: 343.16 K, Liquid, Vibrating tube method

CCCCCC(=O)OCC(COC(=O)CCCCC)(COC(=O)CCCCC)COC(=O)CCCCC [pentaerythritol tetrahexanoate]
Conditions	mass density
19959 kPa	971.7 kg/m3
19975 kPa	971.6 kg/m3
19990 kPa	971.8 kg/m3
20010 kPa	971.8 kg/m3
20026 kPa	971.6 kg/m3
20042 kPa	971.7 kg/m3
20054 kPa	971.7 kg/m3
20065 kPa	971.8 kg/m3
20075 kPa	971.6 kg/m3
20086 kPa	971.7 kg/m3
20099 kPa	971.8 kg/m3
20105 kPa	971.8 kg/m3
20106 kPa	971.8 kg/m3
20108 kPa	971.7 kg/m3
20111 kPa	971.8 kg/m3
20114 kPa	971.8 kg/m3
20116 kPa	971.8 kg/m3
20117 kPa	971.8 kg/m3
20118 kPa	971.7 kg/m3
20119 kPa	971.7 kg/m3
20121 kPa	971.6 kg/m3
20122 kPa	971.7 kg/m3
20124 kPa	971.6 kg/m3 and 971.8 kg/m3
20140 kPa	971.8 kg/m3
20174 kPa	971.9 kg/m3
20204 kPa	971.8 kg/m3
20239 kPa	971.8 kg/m3
20269 kPa	971.9 kg/m3
20298 kPa	971.8 kg/m3
20328 kPa	971.8 kg/m3
20365 kPa	971.9 kg/m3
20395 kPa	971.8 kg/m3
20426 kPa	972 kg/m3
20462 kPa	971.8 kg/m3
20493 kPa	972 kg/m3
20525 kPa	972 kg/m3
20558 kPa	971.9 kg/m3
20589 kPa	972 kg/m3
20626 kPa	972.1 kg/m3
20657 kPa	972.3 kg/m3
20689 kPa	972.1 kg/m3
20727 kPa	972.1 kg/m3
20759 kPa	972.2 kg/m3
20790 kPa	972.2 kg/m3
20828 kPa	972.3 kg/m3
20860 kPa	972.2 kg/m3
20892 kPa	972.2 kg/m3
20930 kPa	972.4 kg/m3
20963 kPa	972.3 kg/m3
20998 kPa	972.3 kg/m3
21030 kPa	972.4 kg/m3
21068 kPa	972.5 kg/m3
21101 kPa	972.4 kg/m3
21134 kPa	972.4 kg/m3
21166 kPa	972.5 kg/m3
21238 kPa	972.5 kg/m3
21271 kPa	972.5 kg/m3
21309 kPa	972.6 kg/m3
21339 kPa	972.6 kg/m3
21372 kPa	972.6 kg/m3
21399 kPa	972.7 kg/m3
21426 kPa	972.6 kg/m3
21732 kPa	972.7 kg/m3
21757 kPa	972.8 kg/m3
21782 kPa	972.8 kg/m3
21811 kPa	972.9 kg/m3
22020 kPa	972.9 kg/m3
22050 kPa	973.1 kg/m3
22076 kPa	973.1 kg/m3
22102 kPa	973 kg/m3
22132 kPa	973.1 kg/m3
22157 kPa	973 kg/m3
22183 kPa	973.2 kg/m3
22214 kPa	973.1 kg/m3
22240 kPa	973.1 kg/m3
22266 kPa	973.1 kg/m3
22296 kPa	973.1 kg/m3
22322 kPa	973.2 kg/m3
22348 kPa	973.2 kg/m3
22379 kPa	973.3 kg/m3
22405 kPa	973.1 kg/m3
22432 kPa	973.3 kg/m3
22458 kPa	973.2 kg/m3
22489 kPa	973.3 kg/m3
22515 kPa	973.3 kg/m3
22547 kPa	973.4 kg/m3
22573 kPa	973.4 kg/m3
23002 kPa	973.6 kg/m3
23035 kPa	973.7 kg/m3
23063 kPa	973.7 kg/m3
23092 kPa	973.8 kg/m3
23125 kPa	973.8 kg/m3
23154 kPa	973.8 kg/m3
23183 kPa	973.8 kg/m3
23212 kPa	973.9 kg/m3
23246 kPa	973.9 kg/m3
23274 kPa	973.9 kg/m3
23301 kPa	974 kg/m3
23332 kPa	973.8 kg/m3
23381 kPa	974 kg/m3
23410 kPa	974 kg/m3
23435 kPa	974 kg/m3
23459 kPa	974 kg/m3
23484 kPa	974.1 kg/m3
23514 kPa	973.9 kg/m3
23540 kPa	974.1 kg/m3
23566 kPa	974 kg/m3
23591 kPa	974.2 kg/m3
23616 kPa	974 kg/m3
23646 kPa	974.1 kg/m3
23671 kPa	974.1 kg/m3
23696 kPa	974.1 kg/m3
23727 kPa	974.1 kg/m3
23752 kPa	974 kg/m3
23782 kPa	974.2 kg/m3
23914 kPa	974.3 kg/m3
23941 kPa	974.3 kg/m3
23971 kPa	974.5 kg/m3
23997 kPa	974.2 kg/m3
24028 kPa	974.3 kg/m3
24054 kPa	974.2 kg/m3
24080 kPa	974.3 kg/m3
24106 kPa	974.3 kg/m3
24137 kPa	974.4 kg/m3
24163 kPa	974.4 kg/m3
24190 kPa	974.4 kg/m3
24221 kPa	974.4 kg/m3
24248 kPa	974.4 kg/m3
24279 kPa	974.4 kg/m3
24306 kPa	974.4 kg/m3
26698 kPa	976.1 kg/m3
26725 kPa	976 kg/m3
26758 kPa	976.2 kg/m3
26785 kPa	976.3 kg/m3
26812 kPa	976.3 kg/m3
26845 kPa	976.2 kg/m3
27601 kPa	976.6 kg/m3
27630 kPa	976.8 kg/m3
27660 kPa	976.8 kg/m3
27697 kPa	976.8 kg/m3
27728 kPa	976.7 kg/m3
27758 kPa	976.8 kg/m3
27787 kPa	976.8 kg/m3
27824 kPa	976.7 kg/m3
27854 kPa	976.9 kg/m3
